The IC50 is the concentration at which inhibition is half-maximal.

The target in experiment [1] is T1, KRAS G12D (amino acids 1-169) (Homo sapiens, UniProt P01116, G12D).
T1 construct: made in house; host or cells: E. coli
The experiment in a line: SOS-catalyzed nucleotide exchange assay (Procedure B, BODIPY FL GDP displacement). Type of experiment: biochemical. The following applies: Procedure B (Example Nos. 18, 21, 23, 33-34); 1 hour incubation, SOS1 + GMPPNP; read-out: KRAS G12D GNE IC50. The procedure:
(§1) Procedure for SOS-Catalyzed Nucleotide Exchange Assay for KRAS-G12C/D/V (Procedure B)
(§2) Recombinant KRAS G12C (amino acids 1-169, SEQ ID NO:8), KRAS G12D (amino acids 1-169, SEQ ID NO:9), KRAS G12V (amino acids 1-169, SEQ ID NO:10) and SOS1 (amino acids 564-1049, SEQ ID NO:11) proteins were expressed in E. coli and purified by affinity chromatography. To prepare each BODIPY™ FL GDP-bound KRAS mutant protein, 50 μM KRAS mutant proteins were incubated with 0.5 mM BODIPY™ FL GDP (Invitrogen, G22360) in a loading buffer (20 mM Tris-HCl pH 7.5, 50 mM NaCl, 1 mM DTT and 2.5 mM EDTA) for 1 hour on ice. After the incubation, MgCl2 was added to a final concentration of 10 mM, followed by an incubation at room temperature for 30 minutes. The mixtures were allowed to pass through a NAP-5 column to remove free nucleotides and purified BODIPY™ FL GDP-bound KRAS G12C, G12D and G12V proteins were used for compound evaluation.
(§3) The inhibitory activity of compounds on recombinant KRAS mutants is measured by the displacement of the bound BODIPY™ GDP. Specifically, 2.5 nM of each BODIPY™ FL GDP-bound KRAS mutant complex was incubated with various concentrations of compound in a reaction buffer (20 mM Tris-HCl pH 7.5, 100 mM NaCl, 1 mM MgCl2, 2 mM DTT, 0.1% Tween 20) at 25° C. for 1 hour. After the incubation, recombinant SOS1 and GMPPNP (Jena Bioscience GmbH, NU-401) were added and incubated at room temperature for 30 minutes to proceed SOS1-dependent GDP-GTP exchange reaction on KRAS mutants. Displacement of BODIPY™ FL GDP by Guanosine-5′-[(β,γ)-imido]triphosphate, Tetralithium salt (GMPPNP) was measured by calculating the ratio of fluorescence intensities of BODIPY™ FL before and after the exchange reaction. […] Dose response curves were analyzed using a 4-parameter logistic model to calculate IC50 values.
(§4) For Example Nos. 1-17, 19-20, 22, 24-32, and 35-53 nucleotide exchange assays for KRAS G12D, G12C, G12V, and G13D were performed according to Procedure A. For Example Nos. 18, 21, 23, and 33-34, nucleotide exchange assays for KRAS G12D, G12C, and G12V were performed according to Procedure B.

Experiment [2] addresses T2, KRAS G12C (amino acids 1-169) (Homo sapiens, UniProt P01116, G12C).
T2 construct: made in house; host or cells: E. coli
Described as above. Type of experiment: biochemical. The following applies: Procedure B (Example Nos. 18, 21, 23, 33-34); 1 hour incubation, SOS1 + GMPPNP; read-out: KRAS G12C GNE IC50. The procedure:
as §1, §2, §3, §4

The target in experiment [3] is T3, KRAS G12V (amino acids 1-169) (Homo sapiens, UniProt P01116, G12V).
T3 construct: made in house; host or cells: E. coli
The experiment is described as above. The experiment is classed as biochemical. The following applies: Procedure B (Example Nos. 18, 21, 23, 33-34); 1 hour incubation, SOS1 + GMPPNP; read-out: KRAS G12V GNE IC50. The procedure:
as §1, §2, §3, §4

Experiment [4] has as its system SW620 cells (homozygous KRAS-G12V activating mutation). The experiment in a line: Cellular phospho-ERK assay in G12V cell line. The experiment is classed as cell-based. The following applies: Homo sapiens, SW-620, 2 hours compound incubation, ratio of p-ERK vs. total ERK, read-out: SW620 pERK IC50. A digest of the protocol:
(§5)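 Cells (10,000-15,000/well) were seeded overnight, then treated for 2 h at 37 °C with a 10-point 1:3 titration from 30 μM final. Lysates were assayed by AlphaLISA SureFire Ultra multiplex, with the p-ERK/total-ERK ratio as read-out; IC50 came from a 4-parameter logistic fit.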

The test system of experiment [5] is PANC08.13 cells (homozygous KRAS-G12D activating mutation). As to the kind of experiment: Cellular phospho-ERK assay in G12D cell line. The following applies: Homo sapiens, PANC-08-13, 2 hours compound incubation, ratio of p-ERK vs. total ERK, read-out: PANC 0813 pERK IC50. The experiment is classed as cell-based. The procedure, abridged:
as §5

Experiment [6] concerns the target NRAS (Homo sapiens, UniProt P01111). The experiment in a line: SOS-catalyzed nucleotide exchange assay (Procedure A, TR-FRET). Type of experiment: biochemical. The following applies: 60 min preincubation, SOS + GTP, read-out: NRAS GNE IC50. A digest of the protocol: (§6)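 Biotinylated WT-sequence HRAS or NRAS (1.25 nM final) loaded with Bodipy-GDP plus Tb-streptavidin, preincubated 60 min with compound (10-point, 3-fold). Exchange started with human SOS (40 nM) and 3 mM GTP, 60 min at room temperature, pH 7.5 Mg buffer. TR-FRET 520/495 ratio normalised to DMSO and saturating inhibitor, four-parameter fit.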

Experiment [7] has as its target HRAS (Homo sapiens, UniProt P01112). The experiment is described as above. The experiment is classed as biochemical. The following applies: 60 min preincubation, SOS + GTP, read-out: HRAS GNE IC50. The procedure, abridged:
as §6

The target of experiment [8] is T4, KRAS-G12V (Homo sapiens, UniProt P01116, G12V).
T4 construct: N-terminal biotin-acceptor peptide […]
Described as above. The experiment is classed as biochemical. The following applies: 60 min preincubation, SOS + GTP, read-out: KRAS G12V GNE IC50. A digest of the protocol: (§7)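 Preformed biotinylated RAS–Bodipy-GDP/Tb-streptavidin complex preincubated with compound 60 min at room temperature, then SOS plus GTP (3 mM final) added. Exchange times: G13D 30 min, G12C/D 60 min, G12V 90 min. Final RAS/SOS: G12C 3 nM/40 nM, G12D 1 nM/40 nM, G12V 1.25 nM/160 nM, G13D 1.25 nM/0 nM. TR-FRET 520/495 ratio, four-parameter fit.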

Experiment [9] concerns the target T5, KRAS-G12C (C51S/C80L/C118S) (Homo sapiens, UniProt P01116, C118S/C51S/C80L/G12C).
T5 construct: N-terminal biotin-acceptor peptide […]
Described as above. Type of experiment: biochemical. The following applies: 60 min preincubation, SOS + GTP, read-out: KRAS G12C GNE IC50. The procedure, abridged:
as §7

The target of experiment [10] is T6, KRAS-G13D (Homo sapiens, UniProt P01116, G13D).
T6 construct: N-terminal biotin-acceptor peptide […]
The description is as above. The experiment is classed as biochemical. The following applies: 60 min preincubation, GTP, read-out: KRAS G13D GNE IC50. The procedure, abridged: as §7

Experiment [11] has as its target T7, KRAS-G12D (Homo sapiens, UniProt P01116, G12D).
T7 construct: N-terminal biotin-acceptor peptide […]
Described as above. Type of experiment: biochemical. The following applies: 60 min preincubation, SOS + GTP, read-out: KRAS G12D GNE IC50. The procedure, abridged:
as §7

Chain of HRAS (P01112 with tags, fused parts or gaps): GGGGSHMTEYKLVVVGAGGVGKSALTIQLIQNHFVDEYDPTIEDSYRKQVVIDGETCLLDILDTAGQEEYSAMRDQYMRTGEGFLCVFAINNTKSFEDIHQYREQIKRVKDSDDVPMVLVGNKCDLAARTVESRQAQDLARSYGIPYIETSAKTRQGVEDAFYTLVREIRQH
T6 sequence (P01116 with tags, fused parts or gaps isoform P01116-2 G13D): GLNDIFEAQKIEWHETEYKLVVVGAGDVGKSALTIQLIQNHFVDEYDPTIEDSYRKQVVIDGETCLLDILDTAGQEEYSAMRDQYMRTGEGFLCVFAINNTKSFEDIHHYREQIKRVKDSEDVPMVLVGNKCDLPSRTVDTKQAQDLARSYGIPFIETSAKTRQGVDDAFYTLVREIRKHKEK
T7 sequence (P01116 with tags, fused parts or gaps isoform P01116-2 G12D): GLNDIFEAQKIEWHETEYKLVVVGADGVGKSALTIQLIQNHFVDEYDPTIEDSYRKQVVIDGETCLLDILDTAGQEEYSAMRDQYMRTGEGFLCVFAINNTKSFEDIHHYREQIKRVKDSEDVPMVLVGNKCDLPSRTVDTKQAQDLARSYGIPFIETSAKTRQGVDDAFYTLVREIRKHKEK
T4 sequence (P01116 with tags, fused parts or gaps isoform P01116-2 G12V): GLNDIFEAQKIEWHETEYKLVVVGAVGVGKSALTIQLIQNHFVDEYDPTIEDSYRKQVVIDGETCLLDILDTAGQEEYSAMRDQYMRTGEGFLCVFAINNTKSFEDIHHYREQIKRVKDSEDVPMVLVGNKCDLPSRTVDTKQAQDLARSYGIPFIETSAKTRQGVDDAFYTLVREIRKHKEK
Chain of NRAS (P01111 with tags, fused parts or gaps): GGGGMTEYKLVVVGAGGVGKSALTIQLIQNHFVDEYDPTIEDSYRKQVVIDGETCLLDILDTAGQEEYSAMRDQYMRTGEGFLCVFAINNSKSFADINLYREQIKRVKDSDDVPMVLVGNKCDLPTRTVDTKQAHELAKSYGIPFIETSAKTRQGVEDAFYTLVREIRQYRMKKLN
T5 sequence (P01116 with tags, fused parts or gaps isoform P01116-2 G12C/C51S/C80L/C118S): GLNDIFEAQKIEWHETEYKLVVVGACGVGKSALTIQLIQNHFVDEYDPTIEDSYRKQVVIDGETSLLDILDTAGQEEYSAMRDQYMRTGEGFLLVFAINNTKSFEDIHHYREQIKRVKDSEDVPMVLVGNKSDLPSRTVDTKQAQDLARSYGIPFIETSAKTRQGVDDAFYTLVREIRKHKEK
T1 sequence (P01116 with tags, fused parts or gaps isoform P01116-2 G12D): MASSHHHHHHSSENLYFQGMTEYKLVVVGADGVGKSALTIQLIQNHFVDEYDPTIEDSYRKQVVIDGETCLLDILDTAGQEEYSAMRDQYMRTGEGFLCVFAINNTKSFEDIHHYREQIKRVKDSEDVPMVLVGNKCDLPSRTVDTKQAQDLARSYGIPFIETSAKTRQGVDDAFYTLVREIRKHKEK
T3 sequence (P01116 with tags, fused parts or gaps isoform P01116-2 G12V): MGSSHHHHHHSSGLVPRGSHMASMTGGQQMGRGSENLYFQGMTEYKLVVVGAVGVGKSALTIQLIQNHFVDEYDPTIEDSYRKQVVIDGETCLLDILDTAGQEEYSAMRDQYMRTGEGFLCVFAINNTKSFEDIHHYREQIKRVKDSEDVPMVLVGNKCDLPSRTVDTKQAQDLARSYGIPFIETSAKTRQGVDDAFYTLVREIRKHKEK
T2 sequence (P01116 with tags, fused parts or gaps isoform P01116-2 G12C): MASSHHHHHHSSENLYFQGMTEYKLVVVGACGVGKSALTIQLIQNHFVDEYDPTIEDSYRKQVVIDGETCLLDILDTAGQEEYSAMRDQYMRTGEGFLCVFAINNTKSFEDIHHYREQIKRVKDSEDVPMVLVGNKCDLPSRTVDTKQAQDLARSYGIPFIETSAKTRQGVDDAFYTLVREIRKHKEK

With `N#Cc1c(N)sc2c(F)ccc(-c3c(Cl)cc4c(N5CCCOCC5)nc(OC[C@@]56CCCN5C[C@H](F)C6)nc4c3F)c12` (single isomer, unassigned) [Ex. 18], the 50% inhibitory concentration (IC50) in [1] was found to be 5.34 nM; in experiment [2], 2.81 nM; in [3] it was 2.91 nM.
The corresponding values for `N#Cc1c(N)sc2c(F)ccc(-c3c(Cl)cc4c(N5CCCOCC5)nc(OC[C@]5(CO)CC5(F)F)nc4c3F)c12` (single isomer, unassigned) [Ex. 33] are 4880 nM, 1020 nM and 2230 nM.
As for `N#Cc1c(N)sc2c(F)ccc(-c3c(Cl)cc4c(N5CCOCC(F)(F)C5)nc(OC[C@@]56CCCN5C[C@H](F)C6)nc4c3F)c12` [compound 12, 2-amino-4-(6-chloro-4-(6,6-difluoro-1,4-oxazepan-4-yl)-8-fluoro-2-(((2R,7aS)-2-fluorotetrahydro-1H-pyrrolizin-7a(5H)-yl)methoxy)quinazo-lin-7-yl)-7-fluorobenzo[b]thio-phene-3-carbonitrile], the half-inhibitory concentration (IC50) in experiment [4] is 32.9 nM; in experiment [5], 75.4 nM; in experiment [6], above 11100 nM; in [7] it was above 11100 nM; in experiment [8], 11.6 nM; in experiment [9], 19.5 nM. Besides, the values for the 50% inhibitory concentration (IC50) in experiment [10] and in [11] were 12.9 nM and 34.2 nM, respectively.
As for `CC1(F)COCCN(c2nc(OC[C@@]34CCCN3C[C@H](F)C4)nc3c(F)c(-c4ccc(F)c5sc(N)c(C#N)c45)c(Cl)cc23)C1` (stereo partly drawn) [compound 13, 2-amino-4-(6-chloro-8-fluoro-4-(6-fluoro-6-methyl-1,4-oxazepan-4-yl)-2-(((2R,7aS)-2-fluorotetrahydro-1H-pyrrolizin-7a(5H)-yl)methoxy)quinazo-lin-7-yl)-7-fluorobenzo[b]thio-phene-3-carbonitrile], the IC50 in experiment [4] was 152 nM; in experiment [5], 208 nM; in experiment [6] it was above 11100 nM; in [7], above 11100 nM; in [8] it was 10.4 nM; in experiment [9], 32.2 nM. The values for the IC50 in experiment [10] and in [11] were 21.9 nM and 46.7 nM, respectively.
Regarding `CC(C)(C)NC[C@@]1(COc2nc(N3CCCOCC3)c3cc(Cl)c(-c4ccc(F)c5sc(N)c(C#N)c45)c(F)c3n2)CC1(F)F` [compound 25, 2-amino-4-(2-(((R)-1-((tert-butylamino)methyl)-2,2-difluorocyclopropyl)methoxy)-6-chloro-8-fluoro-4-(1,4-oxazepan-4-yl)quinazolin-7-yl)-7-fluorobenzo[b]thiophene-3-carbonitrile], the IC50 in experiment [4] is 407 nM; in experiment [5], 1310 nM; in [6] it was above 11100 nM; in experiment [7], above 11100 nM; in experiment [8] it was 17.7 nM; in [9], 28.6 nM. Moreover, the half-maximal inhibitory concentration (IC50) was 52.9 nM in [10] and 247 nM in experiment [11].
As for `CC(C)NC[C@@]1(COc2nc(N3CCCOCC3)c3cc(Cl)c(-c4ccc(F)c5sc(N)c(C#N)c45)c(F)c3n2)CC1(F)F` [compound 26, 2-amino-4-(6-chloro-2-(((R)-2,2-difluoro-1-((isopropylamino)meth-yl)cyclopropyl)meth-oxy)-8-fluoro-4-(1,4-oxazepan-4-yl)quinazolin-7-yl)-7-fluorobenzo[b]thiophene-3-carbonitrile], the IC50 in experiment [4] was 357 nM; in experiment [5], 992 nM; in experiment [6] it was above 11100 nM; in experiment [7], above 11100 nM; in experiment [8], 22.6 nM; in experiment [9], 54.9 nM. Moreover, the IC50 in experiment [10] stood at 59.4 nM; in [11] it was 177 nM.
Take `CC1(NC[C@@]2(COc3nc(N4CCCOCC4)c4cc(Cl)c(-c5ccc(F)c6sc(N)c(C#N)c56)c(F)c4n3)CC2(F)F)CCC1` [compound 28, 2-amino-4-(6-chloro-2-(((R)-2,2-difluoro-1-(((1-methylcyclobutyl)ami-no)methyl)cyclopropyl)methoxy)-8-fluoro-4-(1,4-oxazepan-4-yl)quinazolin-7-yl)-7-fluorobenzo[b]thiophene-3-carbonitrile]: the 50% inhibitory concentration (IC50) in experiment [4] is 867 nM; in experiment [5], 2420 nM; in experiment [6], above 11100 nM; in [7], above 11100 nM; in [8] it was 99.5 nM; in [9], 78.2 nM. Moreover, the IC50 was 255 nM in [10] and 1850 nM in experiment [11].
Take `Cc1cc(N)nc(-c2c(Cl)cc3c(N4CCCOCC4)nc(OC[C@@]45CCCN4C[C@H](F)C5)nc3c2F)c1C(F)(F)F` [compound 40, 6-(6-chloro-8-fluoro-2-(((2R,7aS)-2-fluorotetrahydro-1H-pyrrolizin-7a(5H)-yl)methoxy)-4-(1,4-oxazepan-4-yl)quinazolin-7-yl)-4-methyl-5-(trifluoromethyl)pyridin-2-amine]: the IC50 in [4] is 628 nM; in experiment [5], 807 nM; in experiment [6], above 11100 nM; in [7], above 11100 nM; in experiment [8] it was 78.2 nM; in experiment [9], 83.3 nM. For the same compound, the results for the concentration for half-maximal inhibition (IC50) in experiment [10] and in [11] were 204 nM and 351 nM, respectively.
Regarding `Cc1cc(N)nc(-c2c(Cl)cc3c(N4CCCOCCC4)nc(OC[C@@]45CCCN4C[C@H](F)C5)nc3c2F)c1C(F)(F)F` [compound 41, 6-(6-chloro-8-fluoro-2-(((2R,7aS)-2-fluorotetrahydro-1H-pyrrolizin-7a(5H)-yl)methoxy)-4-(1,5-oxazocan-5-yl)quinazolin-7-yl)-4-methyl-5-(trifluoromethyl)pyridin-2-amine], the 50% inhibitory concentration (IC50) in experiment [4] is 512 nM; in experiment [5] it was 348 nM; in experiment [6] it was above 11100 nM; in [7] it was above 11100 nM; in experiment [8], 46.4 nM; in experiment [9] it was 56.5 nM. In addition, the values for the IC50 in [10] and in [11] were 75.5 nM and 125 nM, respectively.
